In PMC6964506 (ACS Omega, 2019):

What was measured:
A375 cells = assay: Tumorosphere viability, drug sensitivity score; format: cell-based; conditions: B-RafV600E mutant A375 spheroids, 72 h, 0 to 20 μM
K-RasG12V = assay: K-Ras nanoclustering-FRET; format: cell-based; conditions: HEK cells, 24 h; for dose-dependent effect on K-RasG12V nanoclustering-FRET: various concentrations, compared with 24 and 25
H-RasG12V = assay: H-Ras nanoclustering-FRET; format: cell-based; conditions: HEK cells, 5 μM (FTI-277 0.2 μM), 24 h
NCI-H358 cells = assay: Tumorosphere viability, drug sensitivity score; format: cell-based; conditions: NCI-H358 tumorospheres, 72 h, 0 to 20 μM
PDE6D/avi-K-RasFMe = PDE6D/avi-K-RasFMe (Homo sapiens, UniProt O43924); assay: SPR inhibition of PDE6D binding to captured avi-K-RasFMe
PDE6D/avi-K-RasFMe, sequence (O43924 whole entry): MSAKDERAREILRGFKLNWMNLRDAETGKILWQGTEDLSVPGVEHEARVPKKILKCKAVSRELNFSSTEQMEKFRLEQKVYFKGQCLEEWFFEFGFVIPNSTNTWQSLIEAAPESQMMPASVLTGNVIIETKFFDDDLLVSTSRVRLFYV

[1] = biological target: K-RasG12V/PDE6D interaction (Homo sapiens, UniProt O43924); assay: PDE6D/K-Ras interaction by FLIM-FRET in HEK cells; format: cell-based; conditions: 5 μM, 24 h
K-RasG12V/PDE6D interaction, sequence (O43924 whole entry): as above

MDA-MB-231 cells = assay: Mammosphere formation assay; format: cell-based; conditions: MDA-MB-231, 6 days suspension then 72 h with 5 μM
Hs 578T cells = assay: Mammosphere formation assay; format: cell-based; conditions: 6 days suspension then 72 h with 5 μM

SMILES | activity on spheroid viability (DSS) (A375 cells) | effect on H-RasG12V nanoclustering-FRET (H-RasG12V) | IC50 (PDE6D/avi-K-RasFMe) [µM] | Kd (PDE6D/avi-K-RasFMe) [µM] | effect on K-RasG12V/PDE6D FLIM-FRET [1] | effect on mammosphere formation (SFE) (Hs 578T cells) | further results
C=CC(=O)N1CCN(c2ncnc3c(F)c(-c4c(O)cccc4F)c(Cl)cc23)CC1 [ARS-1620] | inactive |  |  |  |  |  | 
c1ccc(Cn2c(-c3ccc(OC[C@H](C4CCNCC4)n4c(-c5ccccc5)nc5ccccc54)cc3)nc3ccccc32)cc1 [Deltarasin, reference compound] | equally high activity in both cell lines | reduced FRET of both Ras isoforms about equally |  |  |  |  | effect on K-RasG12V nanoclustering-FRET (K-RasG12V; 5 μM (FTI-277 0.2 μM)): reduced FRET of both Ras isoforms about equally; IC50 (K-RasG12V; read-out: IC50 K-Ras nanoclustering-FRET (mean ± SEM), n = 3): 700 ± 400 nM; activity on spheroid viability (DSS) (NCI-H358 cells): equally high activity in both cell lines
O=C(NCCCCCCO)c1cc2ccccc2oc1=O [compound 14] |  |  | 18.9 ± 0.2 | 14.1 ± 0.2 | did not block the interaction |  | 
CCOC(=O)C(C)(COP(=O)(OC)OCC1CCC(CNC(=O)c2cc3ccccc3oc2=O)CC1)C(=O)CSC(C)=O (stereo not drawn) [compound 17] |  |  | 6.7 ± 0.1 | 4.97 ± 0.07 | lacked in cellulo activity | no significant effect | effect on mammosphere formation (SFE) (MDA-MB-231 cells): no significant effect
CCOC(=O)C(C)(COP(=O)(OC)OCCCCCCNC(=O)c1ccc(C(=O)OC)c(N)c1)C(=O)CSC(C)=O (stereo not drawn) [compound 22] |  | No effect | 10.27 ± 0.03 | 7.62 ± 0.02 |  |  | fold lower affinity than analogue 23 (PDE6D/avi-K-RasFMe; SPR): 2.6 fold; dose-dependent effect on K-RasG12V nanoclustering-FRET (K-RasG12V): significant dose-dependent reduction
COC(=O)c1ccc(C(=O)NCCCCCCOP(=O)(OC)OCC(C)(C)C(=O)CSC(C)=O)cc1N (stereo not drawn) [compound 23] | inactive | No effect |  |  | performed as well as 15 and somewhat better than 22 | but not H-RasG12V-mutant Hs 578T-mammosphere formation | dose-dependent effect on K-RasG12V nanoclustering-FRET (K-RasG12V): significant dose-dependent reduction
COC(=O)c1ccc(C(=O)NCCCCOP(=O)(OC)OCC(C)(C)C(=O)CSC(C)=O)cc1N (stereo not drawn) [compound 25] |  |  |  |  | performed better than 24 | inactive | effect on mammosphere formation (SFE) (MDA-MB-231 cells): inactive
